The values below come from ChEMBL document CHEMBL4387741, “Optimization of novel reversible Bruton's tyrosine kinase inhibitors identified using Tethering-fragment-based screens” (Bioorg Med Chem, 2019).

Experiment [1] deals with Activated CDC42 kinase 1 (Homo sapiens) (UniProt Q07912). The experiment in a line: Inhibition of wild-type human partial length TNK2 (S159 to D474 residues) expressed in bacterial expression system at 1 uM by Kinomescan method relative to control.
Experiment [2] has as its target MAP kinase-interacting serine/threonine-protein kinase 1 (Homo sapiens) (UniProt Q9BUB5). Description: Inhibition of wild-type human full length MKNK1 (M1 to L424 residues) expressed in mammalian expression system at 1 uM by Kinomescan method relative to control.
Experiment [3] has as its system Receptor-type tyrosine-protein kinase FLT3 (Homo sapiens), P36888 [R834Q]. The experiment in a line: Inhibition of human partial length FLT3 R834Q mutant (V592 to Y969 residues) expressed in mammalian expression system at 1 uM by Kinomescan method relative to control.
Experiment [4] deals with Atypical kinase COQ8B, mitochondrial (Homo sapiens) (UniProt Q96D53). The experiment in a line: Inhibition of wild-type human full length ADCK4 (M1 to S544 residues) expressed in bacterial expression system at 1 uM by Kinomescan method relative to control.
Experiment [5] deals with Cyclin-dependent kinase 13 (Homo sapiens) (UniProt Q14004). Description: Inhibition of wild-type human partial length CDC2L5 (H675 to S1054 residues) expressed in mammalian expression system at 1 uM by Kinomescan method relative to control.
Experiment [6] addresses Serine/threonine-protein kinase tousled-like 2 (Homo sapiens) (UniProt Q86UE8). Description: Inhibition of wild-type human partial length TLK2 (E424 to N749 residues) expressed in bacterial expression system at 1 uM by Kinomescan method relative to control.
Experiment [7] addresses Death-associated protein kinase 1 (Homo sapiens) (UniProt P53355). Description: Inhibition of wild-type human partial length DAPK1 (M1 to F296 residues) expressed in bacterial expression system at 1 uM by Kinomescan method relative to control.
For experiment [8], the target named is Insulin receptor-related protein (Homo sapiens) (UniProt P14616). The experiment in a line: Inhibition of wild-type human partial length INSRR (R950 to E1278 residues) expressed in bacterial expression system at 1 uM by Kinomescan method relative to control.
In experiment [9] the test system is Hepatocyte growth factor receptor (Homo sapiens), P08581 [M1250T]. The experiment in a line: Inhibition of human partial length MET M1250T mutant (D1010 to S1367 residues) expressed in bacterial expression system at 1 uM by Kinomescan method relative to control.
Experiment [10] has as its target Mitogen-activated protein kinase kinase kinase 15 (Homo sapiens) (UniProt Q6ZN16). Description: Inhibition of wild-type human partial length MAP3K15 (T625 to L932 residues) expressed in mammalian expression system at 1 uM by Kinomescan method relative to control.
Experiment [11] addresses Serine/threonine-protein kinase 24 (Homo sapiens) (UniProt Q9Y6E0). Description: Inhibition of wild-type human partial length MST3 (A30 to S311 residues) expressed in bacterial expression system at 1 uM by Kinomescan method relative to control.
In experiment [12] the target is Ephrin type-A receptor 3 (Homo sapiens) (UniProt P29320). The experiment in a line: Inhibition of wild-type human partial length EPHA3 (D604 to K889 residues) expressed in bacterial expression system at 1 uM by Kinomescan method relative to control.
Experiment [13] concerns the target Interleukin-1 receptor-associated kinase 4 (Homo sapiens) (UniProt Q9NWZ3). Description: Inhibition of wild-type human partial length IRAK4 (M1 to S460 residues) expressed in mammalian expression system at 1 uM by Kinomescan method relative to control.
Experiment [14] has as its target Microtubule-associated serine/threonine-protein kinase 1 (Homo sapiens) (UniProt Q9Y2H9). Description: Inhibition of wild-type human partial length MAST1 (S346 to V730 residues) expressed in mammalian expression system at 10 uM by Kinomescan method relative to control.
Experiment [15] concerns the target Death-associated protein kinase 1 (Homo sapiens) (UniProt P53355). The experiment in a line: Inhibition of wild-type human partial length DAPK1 (M1 to F296 residues) expressed in bacterial expression system at 10 uM by Kinomescan method relative to control.
Experiment [16] concerns Tyrosine-protein kinase ABL1 (Homo sapiens), P00519 [F317L]. The experiment in a line: Inhibition of human phosphorylated ABL1 F317L mutant (S229 to K512 residues) expressed in mammalian expression system at 10 uM by Kinomescan method relative to control.
For experiment [17], the target named is Myosin-IIIb (Homo sapiens) (UniProt Q8WXR4). The experiment in a line: Inhibition of wild-type human partial length MYO3B (M1 to D357 residues) expressed in bacterial expression system at 10 uM by Kinomescan method relative to control.
Experiment [18] concerns the target Angiopoietin-1 receptor (Homo sapiens) (UniProt Q02763). Description: Inhibition of wild-type human partial length TIE2 (N804 to T1112 residues) expressed in bacterial expression system at 10 uM by Kinomescan method relative to control.
Experiment [19] deals with cGMP-dependent protein kinase 1 (Homo sapiens) (UniProt Q13976). Description: Inhibition of wild-type human partial length PRKG1 (L339 to F686 residues) expressed in bacterial expression system at 10 uM by Kinomescan method relative to control.
Experiment [20] addresses Serine/threonine-protein kinase 33 (Homo sapiens) (UniProt Q9BYT3). The experiment in a line: Inhibition of wild-type human full length STK33 (M1 to L514 residues) expressed in bacterial expression system at 10 uM by Kinomescan method relative to control.
Experiment [21] has as its target Serine/threonine-protein kinase PLK2 (Homo sapiens) (UniProt Q9NYY3). The experiment in a line: Inhibition of wild-type human partial length PLK2 (H58 to F354 residues) expressed in mammalian expression system at 10 uM by Kinomescan method relative to control.
The target of experiment [22] is Mitogen-activated protein kinase kinase kinase 14 (Homo sapiens) (UniProt Q99558). Description: Inhibition of wild-type human partial length NIK (L318 to P947 residues) expressed in mammalian expression system at 10 uM by Kinomescan method relative to control.
Experiment [23] concerns the target Bone morphogenetic protein receptor type-2 (Homo sapiens) (UniProt Q13873). Description: Inhibition of wild-type human partial length BMPR2 (R179 to Q526 residues) expressed in mammalian expression system at 10 uM by Kinomescan method relative to control.
The target in experiment [24] is Hormonally up-regulated neu tumor-associated kinase (Homo sapiens) (UniProt P57058). Description: Inhibition of wild-type human partial length HUNK (A31 to K354 residues) expressed in bacterial expression system at 10 uM by Kinomescan method relative to control.
Experiment [25] deals with Hepatocyte growth factor receptor (Homo sapiens), P08581 [M1250T]. The experiment in a line: Inhibition of human partial length MET M1250T mutant (D1010 to S1367 residues) expressed in bacterial expression system at 10 uM by Kinomescan method relative to control.
Experiment [26] deals with Activin receptor type-1 (Homo sapiens) (UniProt Q04771). Description: Inhibition of wild-type human ACVR1 (C188 to C509 residues) expressed in bacterial expression system at 10 uM by Kinomescan method relative to control.
The test system of experiment [27] is Serine/threonine-protein kinase B-raf (Homo sapiens), P15056 [V600E]. Description: Inhibition of human partial length BRAF V600E mutant (S429 to E741 residues) expressed in mammalian expression system at 10 uM by Kinomescan method relative to control.

Structures are written as SMILES.

Sequence of Hepatocyte growth factor receptor (Homo sapiens), P08581 [M1250T] (P08581 whole entry M1250T, the tested form may be a part): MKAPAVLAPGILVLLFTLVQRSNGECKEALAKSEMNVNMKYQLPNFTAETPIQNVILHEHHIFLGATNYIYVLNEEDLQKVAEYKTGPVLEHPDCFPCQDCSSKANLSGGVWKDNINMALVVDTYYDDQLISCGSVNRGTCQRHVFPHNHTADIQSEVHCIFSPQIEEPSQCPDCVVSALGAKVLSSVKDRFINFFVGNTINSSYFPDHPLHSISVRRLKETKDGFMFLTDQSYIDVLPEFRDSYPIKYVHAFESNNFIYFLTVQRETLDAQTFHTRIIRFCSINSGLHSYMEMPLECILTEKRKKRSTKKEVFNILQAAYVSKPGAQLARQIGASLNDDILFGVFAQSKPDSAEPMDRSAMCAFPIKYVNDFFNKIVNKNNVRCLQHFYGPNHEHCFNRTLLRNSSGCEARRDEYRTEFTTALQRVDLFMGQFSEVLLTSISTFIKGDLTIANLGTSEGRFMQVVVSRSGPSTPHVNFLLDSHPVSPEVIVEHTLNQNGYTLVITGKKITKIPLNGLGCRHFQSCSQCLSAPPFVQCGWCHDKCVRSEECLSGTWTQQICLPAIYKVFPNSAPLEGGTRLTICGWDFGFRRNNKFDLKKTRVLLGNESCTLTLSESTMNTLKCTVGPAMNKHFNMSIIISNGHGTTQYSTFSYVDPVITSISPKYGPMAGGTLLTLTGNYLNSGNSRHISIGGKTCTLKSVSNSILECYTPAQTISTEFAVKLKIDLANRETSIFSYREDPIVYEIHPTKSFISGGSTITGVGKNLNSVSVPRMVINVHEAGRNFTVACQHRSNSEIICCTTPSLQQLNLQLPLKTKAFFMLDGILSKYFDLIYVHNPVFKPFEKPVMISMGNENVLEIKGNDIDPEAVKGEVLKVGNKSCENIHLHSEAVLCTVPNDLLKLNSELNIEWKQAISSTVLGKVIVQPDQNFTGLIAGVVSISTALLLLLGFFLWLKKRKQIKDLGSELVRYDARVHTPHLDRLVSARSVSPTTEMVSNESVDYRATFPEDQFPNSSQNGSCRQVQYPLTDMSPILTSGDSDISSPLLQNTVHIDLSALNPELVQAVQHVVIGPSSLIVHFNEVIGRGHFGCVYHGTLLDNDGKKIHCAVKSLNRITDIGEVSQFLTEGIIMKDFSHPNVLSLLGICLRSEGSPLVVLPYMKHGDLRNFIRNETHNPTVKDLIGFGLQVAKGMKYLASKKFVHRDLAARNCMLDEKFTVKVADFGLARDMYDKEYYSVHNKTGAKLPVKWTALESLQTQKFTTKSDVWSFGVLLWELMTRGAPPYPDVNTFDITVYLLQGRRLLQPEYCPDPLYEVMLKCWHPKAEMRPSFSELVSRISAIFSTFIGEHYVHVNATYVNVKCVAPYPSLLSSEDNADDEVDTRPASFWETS
Sequence of Death-associated protein kinase 1 (Homo sapiens) (P53355 whole entry, looked up, the tested form may be a part): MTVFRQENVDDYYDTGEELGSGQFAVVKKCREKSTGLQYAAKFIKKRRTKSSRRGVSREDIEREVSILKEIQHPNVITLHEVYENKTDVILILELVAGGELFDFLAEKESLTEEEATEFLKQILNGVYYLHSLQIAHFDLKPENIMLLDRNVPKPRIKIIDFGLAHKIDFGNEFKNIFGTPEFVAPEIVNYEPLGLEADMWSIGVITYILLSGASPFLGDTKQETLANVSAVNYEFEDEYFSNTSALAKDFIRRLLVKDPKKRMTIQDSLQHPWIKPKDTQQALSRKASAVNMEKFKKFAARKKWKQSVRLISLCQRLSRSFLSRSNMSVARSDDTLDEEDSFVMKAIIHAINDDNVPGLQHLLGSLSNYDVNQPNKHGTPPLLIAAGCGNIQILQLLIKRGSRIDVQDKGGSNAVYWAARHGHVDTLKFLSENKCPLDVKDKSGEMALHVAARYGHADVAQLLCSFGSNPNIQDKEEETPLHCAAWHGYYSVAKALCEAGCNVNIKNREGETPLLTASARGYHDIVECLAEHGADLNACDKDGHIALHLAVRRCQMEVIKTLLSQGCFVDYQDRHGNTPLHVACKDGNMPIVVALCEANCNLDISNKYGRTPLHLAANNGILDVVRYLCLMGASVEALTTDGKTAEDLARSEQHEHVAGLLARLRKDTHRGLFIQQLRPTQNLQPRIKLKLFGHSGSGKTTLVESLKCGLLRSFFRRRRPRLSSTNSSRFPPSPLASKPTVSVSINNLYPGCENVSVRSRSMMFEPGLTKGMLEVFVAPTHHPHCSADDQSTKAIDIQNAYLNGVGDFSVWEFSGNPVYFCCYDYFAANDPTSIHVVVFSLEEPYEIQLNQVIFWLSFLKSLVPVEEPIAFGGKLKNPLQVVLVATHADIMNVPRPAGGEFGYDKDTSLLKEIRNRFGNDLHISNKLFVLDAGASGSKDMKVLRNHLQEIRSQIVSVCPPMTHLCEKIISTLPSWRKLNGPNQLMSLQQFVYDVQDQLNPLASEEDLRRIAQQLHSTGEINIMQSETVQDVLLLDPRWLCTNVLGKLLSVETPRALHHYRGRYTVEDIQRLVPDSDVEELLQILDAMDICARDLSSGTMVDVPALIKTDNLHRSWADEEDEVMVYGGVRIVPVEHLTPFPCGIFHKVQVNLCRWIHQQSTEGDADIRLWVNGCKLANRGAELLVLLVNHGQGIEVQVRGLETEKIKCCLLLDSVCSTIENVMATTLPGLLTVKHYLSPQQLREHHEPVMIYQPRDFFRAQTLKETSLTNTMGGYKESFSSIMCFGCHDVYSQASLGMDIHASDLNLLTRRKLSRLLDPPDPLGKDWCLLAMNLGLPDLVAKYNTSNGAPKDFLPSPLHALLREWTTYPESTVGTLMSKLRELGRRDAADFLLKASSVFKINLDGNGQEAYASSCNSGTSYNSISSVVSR
Sequence of Mitogen-activated protein kinase kinase kinase 14 (Homo sapiens) (Q99558 whole entry, looked up, the tested form may be a part): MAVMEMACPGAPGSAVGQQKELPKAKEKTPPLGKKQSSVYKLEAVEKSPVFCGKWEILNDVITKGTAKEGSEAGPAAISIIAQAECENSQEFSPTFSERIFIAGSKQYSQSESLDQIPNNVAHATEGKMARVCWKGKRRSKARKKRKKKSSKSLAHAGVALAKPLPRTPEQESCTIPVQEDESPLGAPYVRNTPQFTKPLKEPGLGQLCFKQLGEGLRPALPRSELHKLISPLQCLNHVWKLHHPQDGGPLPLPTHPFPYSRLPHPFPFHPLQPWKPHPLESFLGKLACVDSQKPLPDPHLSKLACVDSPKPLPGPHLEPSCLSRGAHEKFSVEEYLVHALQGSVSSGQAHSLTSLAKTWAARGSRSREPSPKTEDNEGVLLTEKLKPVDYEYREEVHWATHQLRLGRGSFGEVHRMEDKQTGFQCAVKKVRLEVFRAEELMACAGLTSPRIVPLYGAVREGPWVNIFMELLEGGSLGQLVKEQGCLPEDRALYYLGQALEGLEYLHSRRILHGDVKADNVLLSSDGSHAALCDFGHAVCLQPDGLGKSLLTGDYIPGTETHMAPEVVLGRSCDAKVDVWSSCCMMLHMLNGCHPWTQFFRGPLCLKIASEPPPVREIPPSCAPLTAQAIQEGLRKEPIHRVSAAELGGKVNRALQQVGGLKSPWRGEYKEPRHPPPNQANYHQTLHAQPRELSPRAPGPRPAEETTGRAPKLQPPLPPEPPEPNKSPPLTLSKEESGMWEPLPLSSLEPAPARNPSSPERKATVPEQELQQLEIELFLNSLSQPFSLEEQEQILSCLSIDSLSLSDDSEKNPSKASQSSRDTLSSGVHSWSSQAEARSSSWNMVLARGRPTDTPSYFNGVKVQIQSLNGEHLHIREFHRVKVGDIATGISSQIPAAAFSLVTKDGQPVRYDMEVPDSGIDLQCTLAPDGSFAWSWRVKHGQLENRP
Sequence of Activated CDC42 kinase 1 (Homo sapiens) (Q07912 whole entry, looked up, the tested form may be a part): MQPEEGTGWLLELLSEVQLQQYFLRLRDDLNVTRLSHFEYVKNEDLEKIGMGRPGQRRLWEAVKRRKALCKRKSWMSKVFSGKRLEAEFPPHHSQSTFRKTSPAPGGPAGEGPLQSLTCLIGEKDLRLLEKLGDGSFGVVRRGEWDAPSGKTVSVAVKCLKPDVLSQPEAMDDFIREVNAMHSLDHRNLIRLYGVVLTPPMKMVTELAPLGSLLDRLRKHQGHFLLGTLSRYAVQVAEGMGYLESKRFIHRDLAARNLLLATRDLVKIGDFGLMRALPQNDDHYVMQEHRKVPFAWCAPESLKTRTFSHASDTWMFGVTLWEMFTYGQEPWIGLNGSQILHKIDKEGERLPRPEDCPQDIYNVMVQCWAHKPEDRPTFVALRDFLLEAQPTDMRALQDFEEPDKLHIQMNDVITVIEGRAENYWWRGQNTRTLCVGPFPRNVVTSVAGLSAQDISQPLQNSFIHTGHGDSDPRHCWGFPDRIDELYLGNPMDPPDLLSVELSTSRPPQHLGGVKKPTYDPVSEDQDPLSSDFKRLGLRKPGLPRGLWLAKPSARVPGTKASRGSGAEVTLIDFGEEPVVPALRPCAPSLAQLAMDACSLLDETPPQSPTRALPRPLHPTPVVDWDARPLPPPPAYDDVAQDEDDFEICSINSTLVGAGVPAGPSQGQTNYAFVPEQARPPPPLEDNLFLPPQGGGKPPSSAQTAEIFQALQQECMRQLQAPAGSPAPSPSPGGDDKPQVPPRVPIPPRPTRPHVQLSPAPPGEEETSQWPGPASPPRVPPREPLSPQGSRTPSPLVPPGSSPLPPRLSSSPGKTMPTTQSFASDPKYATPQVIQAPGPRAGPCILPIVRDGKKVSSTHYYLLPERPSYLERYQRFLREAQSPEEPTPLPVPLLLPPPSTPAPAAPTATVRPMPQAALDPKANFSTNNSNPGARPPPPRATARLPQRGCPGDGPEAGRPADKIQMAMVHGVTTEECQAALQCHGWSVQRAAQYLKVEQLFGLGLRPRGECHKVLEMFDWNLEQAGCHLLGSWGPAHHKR

As usually defined, the inhibition is the percentage by which the read-out fell short of the control. For `O=C(Nc1cccc([C@@H]2CN(c3ncnc4[nH]ccc34)CCN2CCO)c1)Nc1c(F)cccc1N1CCCC1`, the inhibition in [1] was determined as 100%; in experiment [2] it was 88%; in [3], 47%; in [4] it was 92%; in [5], 96%; in experiment [6], 99%. Further, the inhibition in experiment [7] turned out to be 5.3%; in experiment [8] it was 100%; in experiment [9], 91%; in experiment [10] it was 74%; in experiment [11], 73%; in experiment [12], 100%. This compound registered an inhibition in experiment [13] of 91%.
As for `O=C(Nc1cccc([C@H]2CCCN(c3ncnc4[nH]ccc34)C2)c1)Nc1ccccc1N1CCCC1`, the inhibition in experiment [14] is 69%; in experiment [15], 4%; in experiment [16] it was 87%; in experiment [17] it was 60%; in [18], 75%; in experiment [19], 44%. Moreover, the inhibition in experiment [20] turned out to be 100%; in experiment [21], 78%; in experiment [22], 75%; in [23] it was 51%; in [24], 100%; in experiment [25], 97%. Moreover, the inhibition was 100% in experiment [26] and 16% in [27].
